Reference: patent US20120277257A1, “Methods of Treating Diseases, Pharmaceutical Compositions, and Pharmaceutical Dosage Forms” (MYREXIS, INC., priority 2009, published 2012)
Where two headings read alike, the source gives them in different places.

Columns and labels:
[1] = test system: NCI-H460 non-small cell lung cancer; assay: NCI-H460 non-small cell lung cancer xenograft; format: in vivo, mice; details: 200 mg/kg oral, daily for 21 days
OPM-2 multiple myeloma = OPM-2 multiple myeloma xenograft; format: in vivo, mice; details: 200 mg/kg oral, daily for 21 days, p = 0.34
Hsp70 RNA = Hsp70 RNA induction in liver and tumor of N-87 xenografted mice (qRT-PCR); format: in vivo; details: single oral dose 200 mg/kg
Experimental: (§1) Xenografted mice bearing N-87 tumors (median volume ˜425 mm^3) were given a single oral dose of Compound 1 (200 mg/kg). Blood, tumor and liver samples (n=6) were collected at 0.25, 0.5, 1, 2, 4, 8, 12, 24, 36 and 48 h post-dose and used to determine Compound 1 concentrations in the plasma and Hsp70 RNA levels in tumor and liver samples (See FIG. 6). Hsp70 RNA levels were determined by qRT-PCR.

[2] = test system: MIA PaCa-2 pancreatic cancer; assay: MIA PaCa-2 pancreatic cancer xenograft
[3] = test system: NCI-H69 small cell lung cancer; assay: NCI-H69 small cell lung cancer xenograft; format: in vivo, mice; details: 200 mg/kg oral, daily for 27 days
[4] = Oral pharmacokinetics in female Sprague Dawley rats, single dose versus two doses; format: in vivo; details: for Cmax / AUC(0-t) / concentration at 24 h: female, Sprague Dawley, rat, plasma; for AUC(0-t): read-out: AUC(0-24); for concentration at 24 h: read-out: C24hr
Experimental: Female Sprague Dawley rats (n=4 or 5) were dosed orally once with 50 mg/kg (See FIG. 9A) or twice with 25 mg/kg (See FIG. 9B) of Compound 1. Pharmacokinetic parameters are outlined in Table 4 below. […] Effective plasma concentrations of Compound 1 were maintained with twice a day dosing.

[5] = test system: NCI-N87 Her2+ gastric cancer; assay: NCI-N87 (Her2+) gastric cancer xenograft in athymic nude mice; format: in vivo; details: for TGI (tumor growth inhibition): daily for 21 days
[6] = Plasma pharmacokinetics in N-87 tumor-bearing nude mice; format: in vivo; details: mouse, 200 mg/kg single dose, median values (n = 6)
Experimental: as §1

HT-29 colon cancer = HT-29 colon cancer xenograft; format: in vivo, mice; details: 200 mg/kg oral, 5-days-on/2-days-off, after 3 cycles
in vivo = details: female, Hsd:athymic nude-Foxn1^nu, mouse, po
Experimental: (§2) The efficacy of Compound 1 was compared to that of SNX-5422 (Serenex, Pfizer, Inc.) on the growth of NCI-N87 (Her2+) human gastric cancer cells as a xenograft in athymic nude mice model. Animals were dosed with either 200 mg/kg of Compound 1 on days 1 through 21 or 40 mg/kg of SNX-5422 thrice weekly for three weeks. Tumor volumes and body weights were determined from Days 1 to 39.
(§3) Five million NCI-N87 cells were implanted subcutaneously in the right flank of female nude mice (Hsd:athymic nude-Foxn1^nu). When the median tumor volume was approximately 123 mm^3, mice were randomized into three cohorts of ten animals. One cohort was dosed orally with vehicle, one cohort was dosed orally with Compound 1 (200 mg/kg) formulated in vehicle, and one cohort was dosed orally with SNX-5422 (40 mg/kg) formulated in dimethylacetamide/polyethylene glycol 300. Vehicle and Compound 1 were administered on days 1-21 and SNX-5422 was administered thrice weekly on Days 1, 3, 5, 8, 10, 12, 15, 17 and 19. The mice were observed daily for mortality and signs of toxicity.

[7] = test system: NCI-N87 Her2+ gastric cancer; assay: NCI-N87 (Her2+) gastric cancer xenograft in athymic nude mice; format: in vivo
Experimental: as §2, §3
Xenografted mice bearing N-87 tumors (median volume ˜125 mm^3) were dosed orally with Compound 1 for three weeks with the dosing schedules indicated in FIG. 4.
Additionally, xenografted mice bearing N-87 tumors (median volume ˜115 mm^3) were dosed orally with Compound 1 for twenty-one days at 200 mg/kg, once daily or 100 mg/kg, twice-daily as indicated in FIG. 5. Tumor growth inhibition (TGI) was monitored up to Day 39.

Colo205 colon cancer = Colo205 colon cancer xenograft; format: in vivo, mice; details: daily for 21 days
[8] = 25 mg/kg oral, two doses 12 h apart

## C[C@H](O)C(=O)N1CCC(CCn2c(Sc3cc4c(cc3Br)OCO4)nc3c(N)ncnc32)CC1 [Compound 1, (2S)-1-[4-(2-{6-amino-8-[(6-bromo-1,3-benzodioxol-5-yl)thio]-9H-purin-9-yl}ethyl)piperidin-1-yl]-1-oxopropan-2-ol]
[1]; p = 0.006
  time to tumor volume 1,500 mm^3: extended
[1]; p = 0.05
  TGI (tumor growth inhibition): 61%
[1]; compared to 1/10 for vehicle arm
  treated mice with tumors <1,500 mm^3: 4/8 treated mice have tumors
OPM-2 multiple myeloma
  TGI (tumor growth inhibition): 71% TGI (p = 0.34)
Hsp70 RNA; 4 hours post-dose
  Hsp70 RNA induction in liver: ~70 fold
  Hsp70 RNA induction in tumor tissue: ~110 fold
Hsp70 RNA; post-dose
  time at which Hsp70 RNA induction reverts to baseline: ≤ 12 h
[2]; 150 mg/kg oral, daily for 15 days, Day 15
  TGI (tumor growth inhibition): 67%
[2]; 150 mg/kg oral, daily for 21 days (Table 1)
  TGI (tumor growth inhibition): 67%
[2]; 200 mg/kg oral, daily for 15 days, Day 15
  TGI (tumor growth inhibition): 95%
[2]; 200 mg/kg oral, daily for 21 days (Table 1)
  TGI (tumor growth inhibition): 95%
[3]; p = 0.01
  time to tumor volume 1,500 mm^3: Extended time to 1,500 mm^3
[3]; compared to 2/9 for vehicle arm
  treated mice with tumors <1,500 mm^3: (p = 0.01); 8/10 treated mice
[4]; [8]
  Cmax: 1110 ng/mL
  AUC(0-t): 5120 ng·h/mL
  concentration at 24 h: 46.7 ng/mL
[4]; 50 mg/kg oral, single dose
  Cmax: 2120 ng/mL
  AUC(0-t): 5840 ng·h/mL
  concentration at 24 h: 1.5 ng/mL
[4]; oral
  plasma concentration at 24 h with BID dosing versus single dose: significantly higher
[5]; 100 mg/kg oral, Day 21, p = 0.003
  TGI (tumor growth inhibition): 82% TGI (p = 0.003) Day 21
[5]; 125 mg/kg oral
  TGI (tumor growth inhibition): 100% TGI (125 mg/kg)
[5]; 200 mg/kg oral, daily for 21 days (50, 75, 125, 200 mg/kg study)
  tumor regression: 50% regression (200 mg/kg);
[6]; oral
  Cmax: 21800 ng/mL
[6]; oral, read-out: AUC(0-24)
  AUC(0-t): 136000 ng·h/mL
[6]; po
  Tmax: 4 h
  half-life: 4.8 h
HT-29 colon cancer
  TGI (tumor growth inhibition): 68% TGI after 3 cycles
In vivo
  MTD: 200 mg/kg
[7]; 200 mg/kg oral, 5-days-on/2-days-off, after 3 cycles
  tumor regression: 44% regression after 3 cycles
[7]; 200 mg/kg oral, QOD (once every-other-day) for three weeks, Day 21
  tumor regression: 7%
[7]; 200 mg/kg oral, daily for 21 days, Day 21 (dosing schedule study)
  tumor regression: 40%
[7]; 200 mg/kg oral, days 1-21, by day 21
  decrease in median tumor volume: 40%
[7]; 200 mg/kg oral, twice weekly for three weeks, Day 21
  TGI (tumor growth inhibition): 100%
[7]; 200 mg/kg oral, weekly (Days 1, 8, 15), Day 21, p = 0.1
  TGI (tumor growth inhibition): 54% TGI (p = 0.1) Day 21
[7]; 400 mg/kg oral, twice weekly for three weeks, Day 21
  TGI (tumor growth inhibition): 95%
[7]; Compound 1 200 mg/kg daily vs SNX-5422 40 mg/kg thrice weekly
  tumor growth inhibition compared with SNX-5422: as effective as SNX-5422
Colo205 colon cancer; 150 mg/kg oral, p = 0.3
  TGI (tumor growth inhibition): 72% TGI (p = 0.3) 150 mg/kg;
Colo205 colon cancer; 200 mg/kg oral, p = 0.03
  TGI (tumor growth inhibition): 87% TGI (p = 0.03) 200 mg/kg
